Measurements: patent US9518041B2, “(+)-5-(3,4-difluorophenyl)-5-[(3-methyl-2-oxopyridin-1(2H)-yl)methyl]imidazolidine-2,4-dione and drug containing same” (KAKEN PHARMACEUTICAL CO., LTD., priority 2013, dated 2016)
≈ marks a conversion by molar mass, not a printed value. Where two headings read alike, the source gives them in different places.

Experiments:
[1] = Solubility test in the 2nd fluid for the disintegration test of the Japanese Pharmacopoeia; assay type: physicochemical; settings: pH 6.8, aqueous buffer, thermodynamic from solid; pH6.8, shaken for 2 hours
Method: Test substances (10.0 mg) were correctly weighed, and methanol was added to adjust to 10 mL. The solution was diluted by 10 times to prepare a solution of […].
In a centrifuge tube 5.0 mg of the test substance was weighed, added with 5.0 mL of the 2nd fluid for the disintegration test of the Japanese pharmacopoeia, supersonified for 3 minutes, and shaken for 2 hours thereafter. This solution was filitered with a membrane filter (0.2 μm), 500 μL the filtrate was measured, 500 μL of acetonitrile was added, and fully stirred to obtain the sample solution.
To 250 mL of 0.2 mol/L potassium dihydrogenphosphate aqueous solution, 118 mL of 0.2 mol/L sodium hydroxide aqueous solution and water was added to adjust to 1000 mL.
Using a high performance liquid chromatography, each of the sample solution for a calibration curve and sample solution for solubility measurement is measured twice to calculate an average area for each.
Based on the average area obtained in the above mentioned method, using an equation below to calculate a solubility. Solubility in the 2nd fluid for the disintegration test of the Japanese pharmacopoeia(μg/mL)=((P×2)/S)×100
S: Average area on the sample solution for a calibration curve
P: Average area on the sample solution for solubility measurement

[2] = Solubility test in organic solvents (propylene glycol, butylene glycol); assay type: physicochemical; settings: organic solvent or mixture, thermodynamic from solid, visual observation after 24 hours at room temperature
Method: Under room temperature conditions, in a 0.5 mL polypropylene tube, (+)-5-(3,4-difluorophenyl)-5-[(3-methyl-2-oxopyridin-1(2H)-yl)methyl]imidazolidine-2,4-dione and (±)-5-(3,4-difluorophenyl)-5-[(3-methyl-2-oxopyridin-1(2H)-yl)methyl]imidazolidine-2,4-dione measured in advance for a suitable amount were prepared, respectively. In each tube, solvent (Propylene glycol (PG) or butylene glycol (BG)) was added with various amounts, e.g. 10 times, 20 times or 100 times amount of the test compound, and stirred with a vortex mixer. With a table ultrasonic washer set at 37° C., ultrasonication treatment was given for 10 minutes; after warming for an hour in a thermostat chamber, each were kept standing for 24 hours at room temperature. The test solutions were observed by sight to evaluate the states in accordance with the determination criterion given below.
Determination criterion consisted of the following two categories:
“Soluble”: Test compound dissolved; no undissolved substances confirmed by visual observation.
“Insoluble”: Test compound remains undissolved; undissolved substances confirmed by visual observation.

Q: What does the source list for `Cc1cccn(CC2(c3ccc(F)c(F)c3)NC(=O)NC2=O)c1=O` (racemic) [(±)-5-(3,4-difluorophenyl)-5-[(3-methyl-2-oxopyridin-1(2H)-yl)methyl]imidazolidine-2,4-dione]?
A: solubility at 2 h [1]: 45 µg/mL (≈ 0.135 mM); solubility at 24 h ([2]; BG, 20 times amount of the test compound, read-out: Solubility in butylene glycol (BG), 20 times amount): < 50000 µg/mL; solubility at 24 h ([2]; BG, 100 times amount of the test compound, read-out: Solubility in butylene glycol (BG), 100 times amount): > 10000 µg/mL; solubility at 24 h ([2]; PG, 10 times amount of the test compound, read-out: Solubility in propylene glycol (PG), 10 times amount): < 50000 µg/mL; solubility at 24 h ([2]; PG, 20 times amount of the test compound, read-out: Solubility in propylene glycol (PG), 20 times amount): < 50000 µg/mL; solubility at 24 h ([2]; PG, 100 times amount of the test compound, read-out: Solubility in propylene glycol (PG), 100 times amount): > 10000 µg/mL
